Each structure is given as a SMILES string.

The solubility (mole fraction) is the moles of solute divided by all moles in the saturated solution.

With `CC12CC3CC(C)(C1)CC(NS(=O)(=O)c1ccc([N+](=O)[O-])cc1)(C3)C2`, the solubility (mole fraction) reads like this: (in n-hexane, 293.15 K) 4.22e-05; (in n-hexane, 298.15 K) 5.67e-05; (in n-hexane, 303.15 K) 6.92e-05; (in n-hexane, 308.15 K) 8.55e-05; (in n-hexane, 313.15 K) 0.000105; (in n-octanol, 293.15 K) 0.00362. For the same compound, the solubility (mole fraction) reads like this: (in n-octanol, 298.15 K) 0.00423; (in n-octanol, 303.15 K) 0.00511; (in n-octanol, 308.15 K) 0.0058; (in n-octanol, 313.15 K) 0.00664.

For the compound `Cc1cc(C)c(S(=O)(=O)NC23CC4CC(CC(C4)C2)C3)c(C)c1`, the solubility (mole fraction) stood at 0.000265 (in n-hexane, 293.15 K); 0.000307 (in n-hexane, 298.15 K); 0.000366 (in n-hexane, 303.15 K); 0.000444 (in n-hexane, 308.15 K); 0.000495 (in n-hexane, 313.15 K); 0.00383 (in n-octanol, 293.15 K). Further, the solubility (mole fraction) by setting is: (in n-octanol, 298.15 K) 0.00452; (in n-octanol, 303.15 K) 0.00562; (in n-octanol, 308.15 K) 0.0068; (in n-octanol, 313.15 K) 0.00809.
